According to ChEMBL document CHEMBL1134096, “Discovery and characterization of the potent, selective and orally bioavailable MMP inhibitor ABT-770” (Bioorg Med Chem Lett, 2001):
Several values for one entry are separate records, joined by “and”; a condition that tells them apart may be missing. Equal entries are not always repeated.

What was measured:
[1] = Half-life was determined in monkey after 3 mg/kg of i.v. dose; format: ADME, organism-based; set-up: dose 3 mg/kg, route intravenous; settings: cercopithecidae, in vivo, iv
Interstitial collagenase = target: T1, Interstitial collagenase (Homo sapiens, UniProt P03956); test: In vitro inhibition of human Matrix metalloprotease-1.
T1 sequence (P03956 whole entry): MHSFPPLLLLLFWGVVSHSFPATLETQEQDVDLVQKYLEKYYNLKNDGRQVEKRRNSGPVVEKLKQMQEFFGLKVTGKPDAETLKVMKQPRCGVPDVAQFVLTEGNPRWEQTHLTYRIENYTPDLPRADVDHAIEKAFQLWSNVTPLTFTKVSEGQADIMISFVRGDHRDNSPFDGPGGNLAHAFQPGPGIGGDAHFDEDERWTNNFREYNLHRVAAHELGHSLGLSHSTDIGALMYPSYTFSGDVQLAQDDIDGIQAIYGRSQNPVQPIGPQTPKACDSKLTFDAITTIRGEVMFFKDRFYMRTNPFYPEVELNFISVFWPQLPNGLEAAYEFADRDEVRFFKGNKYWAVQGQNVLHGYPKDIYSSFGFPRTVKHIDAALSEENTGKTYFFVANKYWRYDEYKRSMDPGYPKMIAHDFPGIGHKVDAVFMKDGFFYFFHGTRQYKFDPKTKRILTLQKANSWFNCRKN

[2] = target: 72 kDa type IV collagenase (Homo sapiens, UniProt P08253); test: In vitro inhibition of human Matrix metalloprotease-2.
[3] = Area under curve was determined in monkey after a 3 mg/kg of oral dose; format: ADME, organism-based; set-up: dose 3 mg/kg, route oral; settings: cercopithecidae, in vivo
[4] = Volume of distribution was determined in rat after a 3 mg/kg of iv dose; format: ADME, organism-based; set-up: dose 3 mg/kg, route intravenous; settings: in vivo, read-out: V
[5] = Half-life was determined in dog after a3 mg/kg of iv dose; format: ADME, organism-based, Canis lupus familiaris; settings: in vivo, 3 mg/kg
[6] = Absolute bioavailability was evaluated in dog; format: ADME, organism-based, Canis lupus familiaris; settings: in vivo
[7] = Volume of distribution was determined in dog after a 3 mg/kg of iv dose; format: ADME, organism-based, Canis lupus familiaris; set-up: dose 3 mg/kg, route intravenous; settings: in vivo, read-out: V
[8] = Area under curve was determined in dog after a 3 mg/kg of oral dose; format: ADME, organism-based, Canis lupus familiaris; set-up: dose 3 mg/kg, route oral; settings: in vivo
[9] = Plasma clearance value was determined in monkey after a 3 mg/kg of iv dose; format: ADME, organism-based; set-up: dose 3 mg/kg, route intravenous; settings: cercopithecidae, in vivo
[10] = Absolute bioavailability was evaluated in monkey; format: ADME, organism-based; settings: cercopithecidae, in vivo
[11] = Volume of distribution was determined in monkey after a 3 mg/kg of iv dose; format: ADME, organism-based; set-up: dose 3 mg/kg, route intravenous; settings: cercopithecidae, in vivo, read-out: V
Canis familiaris = test: Plasma clearance value was determined in dog after a 3 mg/kg of iv dose; format: ADME, organism-based, Canis lupus familiaris; set-up: dose 3 mg/kg, route intravenous; settings: in vivo
[12] = Absolute bioavailability was evaluated in rat; format: ADME, organism-based; settings: in vivo
[13] = Area under curve was determined in rat after a 3 mg/kg of oral dose; format: ADME, organism-based; set-up: dose 3 mg/kg, route oral; settings: in vivo
Rattus norvegicus = test: Plasma clearance value was determined in rat after a 3 mg/kg of iv dose; format: ADME, organism-based; set-up: dose 3 mg/kg, route intravenous; settings: in vivo
B16 = test: Maximal effective dose against growth of B16 melanoma cells implanted subcutaneously in flank of mice; format: functional, Mus musculus
Stromelysin-1 = Stromelysin-1 (Homo sapiens, UniProt P08254); test: Inhibition of Matrix metalloprotease-3
Matrilysin = target: T2, Matrilysin (Homo sapiens, UniProt P09237); test: Inhibition of Matrix metalloprotease-7
T2 sequence (P09237 whole entry): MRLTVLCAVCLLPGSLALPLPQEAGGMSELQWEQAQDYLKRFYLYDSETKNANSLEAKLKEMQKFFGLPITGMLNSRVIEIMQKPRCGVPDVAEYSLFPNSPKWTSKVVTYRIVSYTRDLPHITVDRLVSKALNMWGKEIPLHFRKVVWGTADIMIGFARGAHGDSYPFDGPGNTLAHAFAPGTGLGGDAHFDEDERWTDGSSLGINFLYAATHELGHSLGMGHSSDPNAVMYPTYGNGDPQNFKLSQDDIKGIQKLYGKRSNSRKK

[14] = target: Matrix metalloproteinase-9 (Homo sapiens, UniProt P14780); test: Inhibition of matrix metalloprotease-9
Mus musculus = test: Increase in life span corresponding to 6.5 day delay to 1 g tumor weight at 100 mg/kg of oral dose in mice; format: functional; settings: 156 h

Sequence of 72 kDa type IV collagenase (P08253 whole entry): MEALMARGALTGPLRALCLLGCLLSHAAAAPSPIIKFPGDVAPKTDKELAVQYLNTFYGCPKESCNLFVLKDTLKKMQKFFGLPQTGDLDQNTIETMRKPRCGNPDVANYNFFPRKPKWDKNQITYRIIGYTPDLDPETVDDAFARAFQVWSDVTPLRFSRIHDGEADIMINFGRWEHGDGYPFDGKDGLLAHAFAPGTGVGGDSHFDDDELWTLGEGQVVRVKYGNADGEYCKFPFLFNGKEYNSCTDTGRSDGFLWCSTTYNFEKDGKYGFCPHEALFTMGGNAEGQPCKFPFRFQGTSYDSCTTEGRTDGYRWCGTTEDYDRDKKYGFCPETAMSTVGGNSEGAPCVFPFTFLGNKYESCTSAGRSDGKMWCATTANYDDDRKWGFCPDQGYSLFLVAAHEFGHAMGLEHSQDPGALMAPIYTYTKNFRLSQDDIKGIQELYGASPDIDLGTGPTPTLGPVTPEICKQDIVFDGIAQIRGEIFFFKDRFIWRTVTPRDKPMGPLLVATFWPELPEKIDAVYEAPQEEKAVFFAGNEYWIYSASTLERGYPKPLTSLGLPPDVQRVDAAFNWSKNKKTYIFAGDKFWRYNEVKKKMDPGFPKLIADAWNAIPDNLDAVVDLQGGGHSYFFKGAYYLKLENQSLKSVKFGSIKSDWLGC
Sequence of Stromelysin-1 (P08254 whole entry): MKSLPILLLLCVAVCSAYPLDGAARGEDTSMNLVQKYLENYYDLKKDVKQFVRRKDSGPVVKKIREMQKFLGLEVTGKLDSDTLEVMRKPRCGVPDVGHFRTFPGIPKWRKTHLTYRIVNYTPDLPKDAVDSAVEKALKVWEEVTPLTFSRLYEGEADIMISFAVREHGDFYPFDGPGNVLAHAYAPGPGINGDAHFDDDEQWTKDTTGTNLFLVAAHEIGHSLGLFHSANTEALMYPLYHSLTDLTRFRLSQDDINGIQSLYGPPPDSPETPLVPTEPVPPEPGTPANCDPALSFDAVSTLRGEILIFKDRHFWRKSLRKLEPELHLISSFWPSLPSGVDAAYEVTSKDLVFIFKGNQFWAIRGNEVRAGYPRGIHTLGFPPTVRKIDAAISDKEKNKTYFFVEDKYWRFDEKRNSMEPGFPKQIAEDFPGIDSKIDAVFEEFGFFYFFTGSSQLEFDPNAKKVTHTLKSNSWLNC
Sequence of Matrix metalloproteinase-9 (P14780 whole entry): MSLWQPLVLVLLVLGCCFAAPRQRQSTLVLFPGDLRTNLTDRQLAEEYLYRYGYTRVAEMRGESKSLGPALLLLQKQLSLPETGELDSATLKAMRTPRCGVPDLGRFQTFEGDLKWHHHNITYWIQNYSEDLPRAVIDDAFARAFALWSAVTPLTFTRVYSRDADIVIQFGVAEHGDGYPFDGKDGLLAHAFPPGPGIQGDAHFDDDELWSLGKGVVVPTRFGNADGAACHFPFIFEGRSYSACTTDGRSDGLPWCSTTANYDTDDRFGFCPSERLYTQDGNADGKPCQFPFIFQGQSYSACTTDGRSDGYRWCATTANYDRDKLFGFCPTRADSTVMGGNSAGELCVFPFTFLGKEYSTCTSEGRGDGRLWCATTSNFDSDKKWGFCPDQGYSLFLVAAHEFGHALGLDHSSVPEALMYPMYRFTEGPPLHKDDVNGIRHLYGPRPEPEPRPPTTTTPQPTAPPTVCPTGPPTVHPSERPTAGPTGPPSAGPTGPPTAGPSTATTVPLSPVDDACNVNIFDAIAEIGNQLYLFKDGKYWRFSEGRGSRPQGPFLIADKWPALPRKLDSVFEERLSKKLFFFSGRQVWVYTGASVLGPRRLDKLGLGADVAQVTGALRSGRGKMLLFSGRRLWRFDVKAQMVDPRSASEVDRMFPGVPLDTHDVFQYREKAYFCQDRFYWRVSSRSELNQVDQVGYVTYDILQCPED

Row | SMILES | IC50 (Interstitial collagenase) [nM] | IC50 [2] [nM] | also measured
1 | CN1C(=O)N(CC(COc2ccc(-c3ccc(C#N)cc3)cc2)N(O)C=O)C(=O)C1(C)C (stereo not drawn) | – | 58 | –
2 | CN1C(=O)N(CC(COc2ccc(-c3ccccc3)cc2)N(O)C=O)C(=O)C1(C)C (stereo not drawn) | 1100 | 89 | –
3 | CC1(C)NC(=O)N(CC(COc2ccc(-c3ccc(C(F)(F)F)cc3)cc2)N(O)C=O)C1=O (stereo not drawn) | 840 | 20 | –
4 | CC1(C)NC(=O)N(C[C@@H](COc2ccc(-c3ccc(OC(F)(F)F)cc3)cc2)N(O)C=O)C1=O | 4600 | 4 | T1/2 [1]: 8 h and 21 h; AUC [3]: 43000 ng·h/mL; Vd [4]: 1.2 L/kg; half-life [5]: 9 h; bioavailability [6]: 83%; Vd [7]: 0.9 L/kg; AUC [8]: 23000 ng·h/mL; Clp [9]: 1.13 mL/min/kg; bioavailability [10]: 95%; Vd [11]: 1.2 L/kg; Clp (Canis familiaris): 1.83 mL/min/kg; bioavailability [12]: 93%; AUC [13]: 24000 ng·h/mL; Clp (Rattus norvegicus): 2 mL/min/kg; Effective dose (B16): 300 mg/kg; IC50 (Stromelysin-1): 42 nM; IC50 (Matrilysin): > 10000 nM; IC50 [14]: 120 nM; ILS at 100 mg/kg (Mus musculus): 46%
5 | CN1C(=O)N(CC(COc2ccc(-c3cccs3)cc2)N(O)C=O)C(=O)C1(C)C (stereo not drawn) | 3600 | 130 | –
6 | CN1C(=O)N(CC(COc2ccc(-c3ccco3)cc2)N(O)C=O)C(=O)C1(C)C (stereo not drawn) | 1600 | 85 | –
7 | CC1(C)NC(=O)N(CC(COc2ccc(-c3ccc(C#N)cc3)cc2)N(O)C=O)C1=O (stereo not drawn) | 2100 | 8 | half-life [1]: 8 h
8 | CN1C(=O)N(CC(COc2ccc(-c3cccnc3)cc2)N(O)C=O)C(=O)C1(C)C (stereo not drawn) | > 10000 | > 10000 | –
9 | Cc1ccc(-c2ccc(OCC(CN3C(=O)N(C)C(C)(C)C3=O)N(O)C=O)cc2)cc1 (stereo not drawn) | 1600 | 20 | –
10 | COCCOc1ccc(-c2ccc(OCC(CN3C(=O)NC(C)(C)C3=O)N(O)C=O)cc2)cc1 (stereo not drawn) | > 10000 | 4 | half-life [1]: 1 h
11 | CN1C(=O)N(CC(COc2cccc(-c3ccc(C#N)cc3)c2)N(O)C=O)C(=O)C1(C)C (stereo not drawn) | > 10000 | > 10000 | –
12 | CC1(C)NC(=O)N(CC(COc2ccc(-c3ccc(OC(F)(F)F)cc3)cc2)N(O)C=O)C1=O (stereo not drawn) | 8600 | 6 | half-life [1]: 20 h

Further molecules by falling IC50 [2], results first:

Row | IC50 (Interstitial collagenase) [nM] | IC50 [2] [nM] | SMILES | also measured
13 | > 10000 | 1300 | CN1C(=O)N(CC(COc2ccc(-c3cccc(C#N)c3)cc2)N(O)C=O)C(=O)C1(C)C (stereo not drawn) | –
14 | > 10000 | 180 | CC1(C)NC(=O)N(C[C@H](COc2ccc(-c3ccc(OC(F)(F)F)cc3)cc2)N(O)C=O)C1=O | IC50 (Stromelysin-1): 3100 nM; IC50 (Matrilysin): > 10000 nM; IC50 [14]: 1200 nM
15 | > 10000 | 61 | C=Cc1ccc(-c2ccc(OCC(CN3C(=O)N(C)C(C)(C)C3=O)N(O)C=O)cc2)cc1 (stereo not drawn) | –
16 | 4900 | 48 | CC1(C)NC(=O)N(CC(COc2ccc(-c3ccc(S(C)(=O)=O)cc3)cc2)N(O)C=O)C1=O (stereo not drawn) | half-life [1]: 5 h
17 | > 10000 | 26 | CCCCCOc1ccc(-c2ccc(OCC(CN3C(=O)NC(C)(C)C3=O)N(O)C=O)cc2)cc1 (stereo not drawn) | –
18 | > 10000 | 16 | CCCCc1ccc(-c2ccc(OCC(CN3C(=O)NC(C)(C)C3=O)N(O)C=O)cc2)cc1 (stereo not drawn) | half-life [1]: 1 h
19 | > 10000 | 4 | CCCOc1ccc(-c2ccc(OCC(CN3C(=O)NC(C)(C)C3=O)N(O)C=O)cc2)cc1 (stereo not drawn) | half-life [1]: 1 h
20 | – | 4 | COc1ccc(-c2ccc(OCC(CN3C(=O)N(C)C(C)(C)C3=O)N(O)C=O)cc2)cc1 (stereo not drawn) | –
21 | 1000 | 1 | CCOc1ccc(-c2ccc(OCC(CN3C(=O)NC(C)(C)C3=O)N(O)C=O)cc2)cc1 (stereo not drawn) | –
